The first test deals with SW620 cells. As to the kind of experiment: Cell proliferation / cytotoxicity assay (CellTiter-Glo) in SW620 cells. Type of test: cell-based. Particulars: Homo sapiens, SW-620; SW620 cells (ATCC CCL-227), 72 hours, CellTiter-Glo 2.0 luminescence. The method, then:
Compounds are assayed for inhibition of cell proliferation and killing cancer cells. Cytotoxicity assays are conducted according to the following general procedure. SW620 cells (ATCC CCL-227) are maintained in DMEM Low Glucose (Corning 10-014-CV) media supplemented with 10% fetal bovine serum and 1% PenStrep and grown at 37° C. in 5% CO2. Cells are plated into 96 well flat bottom plates (2 million/plate, ˜20,000/well, 200 μL media/well). The cells are allowed to settle and adhere to the plate bottom overnight. Compounds are diluted in media from a 10 mM stock solution starting at 50 μM, using 2-fold dilutions, in a column in a 96-well plate. Media is removed from the plate containing cells and replaced with media containing diluted compounds, Plates are incubated 72 hours at 37° C. in 5% CO2. Plates are allowed to come to room temperature and 100 μL CellTiter-Glo 2.0 reagent (Promega, G924C) is added at room temperature. Plates are shaken for 2 minutes, then allowed to stand for 15 minutes. Luminescence is read with FLx800 (BioTek Instruments). Data is plotted with GraphPad Prizm 8.0.
Regarding `Cc1nc(N[C@@H]2CC[C@H](N3CCNC3=O)C2)nc2ccc(-c3ccnc4c3OCCO4)cc12` [Compound 26], the IC50 was 5 to 10 µM.
`Cc1nc(N[C@@H]2CC[C@H](NC(=O)OC(C)(C)C)C2)nc2ccc(-c3cccc4c3OCCO4)cc12` [Compound 1] came in with a concentration for half-maximal inhibition (IC50) of 5 to 10 µM.
As to `Cc1nc(N[C@@H]2CC[C@H](NC(=O)OCc3nccn3C)C2)nc2ccc(-c3ccnc4c3OCCO4)cc12` [Compound 34], the IC50 was < 5 µM.
Same read-out and setting: the result for `Cc1nc(N[C@@H]2CC[C@H](NC(=O)OCc3ncco3)C2)nc2ccc(-c3ccnc4c3OCCO4)cc12` [Compound 35] reads < 5 µM.
Regarding `Cc1nc(N[C@@H]2CC[C@H](NC(=O)O[C@@H]3CCN(C)C3)C2)nc2ccc(-c3ccnc4c3OCCO4)cc12` [Compound 39], the IC50 was < 5 µM.
As for `Cc1nc(N[C@@H]2CC[C@H](NC(=O)OC(C)(C)C)C2)nc2ccc(-c3cc[n+]([O-])c4c3OCCO4)cc12` [Compound 45], the IC50 is < 5 µM.
Turning to `Cc1nc(N[C@@H]2CC[C@H](NC(=O)c3ccc(Cl)cc3)C2)nc2ccc(-c3cccc4c3CCCC4)cc12` [Compound 5], the IC50 was < 5 µM.
On to `Cc1nn(C)c(C(=O)N[C@H]2CC[C@@H](Nc3nc(C)c4cc(-c5ccnc6c5OCCO6)ccc4n3)C2)c1Cl` [Compound 13], for which the IC50 was < 5 µM.
Same read-out and setting: with `Cc1nc(N[C@@H]2CC[C@H](NC(=O)C(C)(C)C)C2)nc2ccc(-c3ccnc4c3OCCO4)cc12` [Compound 27] the figure was < 5 µM; with `Cc1ccc2ccc(F)c(-c3ccc4nc(N[C@@H]5CC[C@H](NC(=O)OC(C)(C)C)C5)nc(C)c4c3)c2n1` [Compound 15], 5 to 10 µM; with `Cc1nc(N[C@@H]2CC[C@H](NC(=O)OC(C)(C)C)C2)nc2ccc(-c3ccnc4c3OCCO4)c(F)c12` [Compound 43], < 5 µM.
`Cc1nccc(-c2ccc3nc(N[C@@H]4CC[C@H](NC(=O)c5ccc(Cl)cc5)C4)nc(C)c3c2)c1Cl` [Compound 9]: the IC50 is < 5 µM.
`Cc1nc(N[C@@H]2CC[C@H](NC(=O)OC(C)(C)C)C2)nc2ccc(-c3c(Cl)cnc4c3OCCO4)cc12` [Compound 44]: the IC50 was < 5 µM.
As to `C=CC(=O)N[C@H]1CC[C@@H](Nc2nc(C)c3cc(-c4ccnc5c4OCCO5)ccc3n2)C1` [Compound 42], the IC50 was < 5 µM.
`Cc1cc(COC(=O)N[C@H]2CC[C@@H](Nc3nc(C)c4cc(-c5ccnc6c5OCCO6)ccc4n3)C2)on1` [Compound 41]: the IC50 is < 5 µM.
As for `Cc1nc(N[C@@H]2CC[C@H](NC(=O)OC[C@H]3CCCN3C)C2)nc2ccc(-c3ccnc4c3OCCO4)cc12` [Compound 37], the IC50 was < 5 µM.
Still for that read-out and setting: with `Cc1ncccc1C(=O)N[C@H]1CC[C@@H](Nc2nc(C)c3cc(-c4ccnc5c4OCCO5)ccc3n2)C1` [Compound 14] the figure was < 5 µM.
On the same count and under the same terms, with `Cc1nc(N[C@@H]2CC[C@H](NC(=O)c3nnn(C(C)(C)C)n3)C2)nc2ccc(-c3ccnc4c3OCCO4)c(F)c12` [Compound 48] the figure was < 5 µM; with `Cc1nc(N[C@@H]2CC[C@H](NC(=O)OC(C)(C)C)C2)[n+]([O-])c2ccc(-c3ccnc4c3OCCO4)cc12` [Compound 46], < 5 µM; with `COc1nccc(-c2ccc3nc(N[C@@H]4CC[C@H](NC(=O)OC(C)(C)C)C4)nc(C)c3c2)c1Cl` [Compound 21], 5 to 10 µM.
On the same count and under the same terms, with `COc1c(Cl)cccc1-c1ccc2nc(N[C@@H]3CC[C@H](NC(=O)OC(C)(C)C)C3)nc(C)c2c1` [Compound 22] the figure was 5 to 10 µM; with `Cc1nc(N[C@@H]2CC[C@H](NS(=O)(=O)c3ccc(C#N)cc3)C2)nc2ccc(-c3ccnc4c3OCCO4)cc12` [Compound 32], < 5 µM.
`Cc1ccc2ccc(F)c(-c3ccc4nc(N[C@@H]5CC[C@@H](NC(=O)OC(C)(C)C)C5)nc(C)c4c3)c2n1` [Compound 12]: the IC50 was in the range of 5 to 10 µM.
For the molecule `Cc1nc(N[C@@H]2CC[C@H](NC(=O)c3ccccc3Cl)C2)nc2ccc(-c3ccnc4c3OCCO4)cc12` [Compound 6], the IC50 was < 5 µM.
As to `Cc1nccc(-c2ccc3nc(N[C@@H]4CC[C@H](NC(=O)OC(C)(C)C)C4)nc(C)c3c2)c1Cl` [Compound 16], the IC50 was 5 to 10 µM.
In turn, `COc1ncccc1-c1ccc2nc(N[C@@H]3CC[C@H](NC(=O)OC(C)(C)C)C3)nc(C)c2c1` [Compound 31] had an IC50 of 5 to 10 µM.
On to `Cc1nc(N[C@@H]2CC[C@@H](NC(=O)OC(C)(C)C)C2)nc2ccc(-c3ccnc4c3OCCO4)cc12` [Compound 11], for which the IC50 was < 5 µM.
`Cc1nc(N[C@@H]2CC[C@H](N3Cc4ccccc4CC3=O)C2)nc2ccc(-c3cccc4c3OCCO4)cc12` [Compound 3] gave an IC50 of 5 to 10 µM.
The same measure, in the same setting: with `Cc1nc(N[C@@H]2CC[C@H](NC(=O)O[C@H]3CCN(C)C3)C2)nc2ccc(-c3ccnc4c3OCCO4)cc12` [Compound 33] the figure was < 5 µM; with `Cc1nc(N[C@H]2CC[C@@H](NC(=O)OC(C)(C)C)C2)nc2ccc(-c3ccnc4c3OCCO4)cc12` [Compound 18], < 5 µM; with `Cc1nc(N[C@@H]2CC[C@H](NC(=O)Cn3cccn3)C2)nc2ccc(-c3cccc4c3CCCC4)cc12` [Compound 29], < 5 µM.
Still for that read-out and setting: the result for `Cc1nc(N[C@@H]2CC[C@H](NC(=O)OC[C@@H]3CCCN3C)C2)nc2ccc(-c3ccnc4c3OCCO4)cc12` [Compound 38] reads < 5 µM.
Still for that read-out and setting: with `Cc1nc(N[C@@H]2CC[C@H](NC(=O)c3nnn(C(C)(C)C)n3)C2)nc2ccc(-c3ccnc4c3OCCO4)cc12` [Compound 47] the figure was < 5 µM; with `Cc1nc(N[C@@H]2CC[C@H](NC(=O)OCc3ccno3)C2)nc2ccc(-c3ccnc4c3OCCO4)cc12` [Compound 40], < 5 µM; with `Cc1ccc2ccc(F)c(-c3ccc4nc(N[C@H]5CC[C@@H](NC(=O)OC(C)(C)C)C5)nc(C)c4c3)c2n1` [Compound 28], 5 to 10 µM.
Turning to `Cc1nc(N[C@@H]2CC[C@H](N)C2)nc2ccc(-c3ccnc4c3OCCO4)cc12` [Compound 10], the IC50 was 5 to 10 µM.
`Cc1nc(N[C@@H]2CC[C@H](NC(=O)c3ccc(Cl)cc3)C2)nc2ccc(-c3ccnc4c3OCCO4)cc12` [Compound 8]: the IC50 is < 5 µM.
With `Cc1nc(N[C@@H]2CC[C@H](NC(=O)c3ccc(Cl)cc3)C2)nc2ccc(-c3cccc4c3OCCO4)cc12` [Compound 2], the IC50 fell in the range of 5 to 10 µM.
Same read-out and setting: with `Cc1nc(N[C@@H]2CC[C@H](NC(=O)OC(C)(C)C)C2)nc2ccc(-c3ccnc4c3OCCO4)cc12` [Compound 4] the figure was < 5 µM; with `Cc1nc(N[C@@H]2CC[C@H](NC(=O)OCc3ccon3)C2)nc2ccc(-c3ccnc4c3OCCO4)cc12` [Compound 36], < 5 µM.
`Cc1nc(N[C@@H]2CC[C@H](N3Cc4ccccc4CC3=O)C2)nc2ccc(-c3ccnc4c3OCCO4)cc12` [Compound 7] registered an IC50 of 5 to 10 µM.

Staying with this test, now noted: Homo sapiens, SW-620; SW620 cells (ATCC CCL-227), 72 hours, CellTiter-Glo 2.0 luminescence; Table 2.
Regarding `Cc1nc(N[C@@H]2CCN(Cc3ccc(Cl)cc3)C2)nc2ccc(-c3cccc4c3CCCC4)cc12` [Compound 92], the IC50 fell in the range of 5 to 10 µM.
On to `Cc1nc(N[C@H]2CCN(Cc3ccc(Cl)cc3)C2)nc2ccc(-c3cccc4c3CCCC4)cc12` [Compound 91], for which the IC50 was < 5 µM.

The test is the same for the next values; noted with them: SW620 cells (ATCC CCL-227), 72 hours, CellTiter-Glo 2.0 luminescence.
Take `Cc1nc(N[C@@H]2CC[C@H](NC(=O)OC(C)(C)C)C2)nc2ccc(-c3ccnc4c3OCCO4)cc12` [Compound 17]: the IC50 was < 5 µM.
As for `Cc1nc(N[C@@H]2CC[C@H](NC(=O)OC(C)(C)C)C2)nc2ccc(-c3ccnc4c3OCCO4)cc12` [Compound 19], the IC50 was < 5 µM.
`Cc1ccc2ccc(F)c(-c3ccc4nc(N[C@@H]5CC[C@H](NC(=O)OC(C)(C)C)C5)nc(C)c4c3)c2n1` [Compound 30] had an IC50 of 5 to 10 µM.

(Values after patent publication US20220112178A1, “Small Molecule Modulators of RAS GTPase” (Tosk, Inc., priority 2020, published 2022).)
